Results from EPA's ToxRefDB 2.

Key:
mouse [1] = details: Chronic toxicity, other, Oral, Feed, dose end: 150 week, group: systemic
rat [2] = details: Chronic toxicity, sprague dawley, Oral, Feed, dose end: 24 month, group: systemic
rat [3] = details: Prenatal developmental toxicity study; sprague dawley; Oral; Gavage/Intubation; dose end: 15 GD; group: developmental; systemic / in life observation / body weight / fetal weight
rat [4] = details: Carcinogenicity, fischer, Oral, Feed, dose end: 104 week, group: systemic
rat [5] = details: Prenatal developmental toxicity study, sprague dawley, Inhalation, Whole-Body, dose end: 15 GD
rat [6] = details: Multigenerational reproductive toxicity study, sprague dawley, Inhalation, Whole-Body, dose end: 2 generation
rat [7] = details: Chronic toxicity; sprague dawley; Oral; Feed; dose end: 52 week; group: systemic; systemic / pathology microscopic / liver / hypertrophy + systemic / pathology microscopic / thyroid gland / colloid content + systemic / …
mouse [8] = details: Subchronic oral toxicity in rodents, b6c3f1, Gavage/Intubation, dose end: 17 week, group: systemic
rat [9] = details: Subchronic oral toxicity in rodents, fischer, Gavage/Intubation, dose end: 17 week, group: systemic
rat [10] = details: Multigenerational reproductive toxicity study, Oral, Gavage/Intubation, dose end: 2 generation
[11] = systemic / in life observation / body weight / body weight
[12] = systemic / in life observation / body weight / body weight + systemic / organ weight / liver / absolute + systemic / organ weight / liver / …
[13] = systemic / pathology microscopic / parathyroid gland / hyperplasia
[14] = group: developmental, systemic / in life observation / body weight / fetal weight
[15] = group: maternal, systemic / in life observation / body weight / body weight + systemic / in life observation / body weight / body weight gain
[16] = group: maternal, systemic / in life observation / body weight / body weight + systemic / in life observation / body weight / body weight gain + systemic / in…
[17] = group: offspring, systemic / in life observation / body weight / offspring (pup) weight gain + systemic / in life observation / body weight / offspring (pup) …
[18] = group: parental, systemic / in life observation / body weight / body weight
[19] = group: reproductive, reproductive / offspring survival early / litter viability other / litter viability + reproductive / reproductive performance / …
[20] = systemic / hematology / leukocyte (wbc) count differential / leukocyte (wbc) + systemic / hematology / lymphocyte / lymphocyte
[21] = systemic / hematology / leukocyte (wbc) count differential / leukocyte (wbc) + systemic / hematology / lymphocyte / lymphocyte + systemic / …
[22] = group: offspring, developmental / developmental malformation / bone / wavy
[23] = group: reproductive, reproductive / reproductive performance / gestational length / gestational length + reproductive / offspring survival early / dead fetuses…

## CCOC(=O)NC(=S)Nc1ccccc1NC(=S)NC(=O)OCC [Thiophanate]
Mouse [1]; systemic / pathology microscopic / ovary / cyst
  NEL: 60 mg/kg/day
Mouse [1]; systemic / pathology microscopic / testes / hypospermatogenesis
  LOAEL: 300 mg/kg/day
Mouse [1]; systemic / pathology microscopic / testes / hypospermatogenesis + systemic / pathology microscopic / liver / fatty change
  NOAEL: 60 mg/kg/day
Mouse [1]; systemic / pathology microscopic / testes / hypospermatogenesis + systemic / pathology microscopic / liver / fatty change + systemic / …
  LEL: 300 mg/kg/day
Rat [2]; [11]
  NEL: 10 mg/kg/day
  NOAEL: 10 mg/kg/day
Rat [2]; [12]
  LEL: 50 mg/kg/day
  LOAEL: 50 mg/kg/day

## O=c1c(O)c(-c2ccc(O)c(O)c2)oc2cc(O)cc(O)c12 [Quercetin]
Rat [3]
  LEL: 200 mg/kg/day
  LOAEL: > 2000 mg/kg/day
  NEL: 20 mg/kg/day
  NOAEL: ≥ 2000 mg/kg/day
Rat [4]; systemic / in life observation / body weight / body weight + systemic / in life observation / body weight / body weight gain + systemic / …
  LOAEL: 1600 mg/kg/day
Rat [4]; systemic / in life observation / body weight / body weight + systemic / organ weight / kidney / relative to body weight + systemic / organ …
  NOAEL: 400 mg/kg/day
Rat [4]; [13]
  LEL: 40 mg/kg/day
  NEL: < 40 mg/kg/day

## C1CO1 [Ethylene oxide]
Rat [5]; [14]
  LEL: 50 ppm
  LOAEL: 50 ppm
  NEL: < 50 ppm
  NOAEL: < 50 ppm
Rat [5]; [15]
  LEL: 125 ppm
  LOAEL: 125 ppm
Rat [5]; [16]
  NEL: 50 ppm
  NOAEL: 50 ppm
Rat [6]; [17]
  LEL: 33 ppm
  LOAEL: 33 ppm
  NEL: 10 ppm
  NOAEL: 10 ppm
Rat [6]; [18]
  LEL: 33 ppm
  LOAEL: 33 ppm
  NEL: 10 ppm
  NOAEL: 10 ppm
Rat [6]; [19]
  LEL: 33 ppm
  LOAEL: 33 ppm
  NEL: 10 ppm
  NOAEL: 10 ppm

## C/C=C/C(=O)Oc1ccccc1[N+](=O)[O-].CCCCCCCC.O=NO [Dinocap]
Rat [7]
  LEL: 121 mg/kg/day
  LOAEL: 121 mg/kg/day
  NEL: 11.4 mg/kg/day
  NOAEL: 11.4 mg/kg/day

## c1ccccc1 [Benzene]
Mouse [8]; [20]
  LEL: 50 mg/kg/day
Mouse [8]; [21]
  LOAEL: > 600 mg/kg/day
  NEL: 25 mg/kg/day
  NOAEL: ≥ 600 mg/kg/day
Rat [9]; [20]
  LEL: 25 mg/kg/day
  NEL: < 25 mg/kg/day
Rat [9]; [21]
  LOAEL: > 600 mg/kg/day
  NOAEL: ≥ 600 mg/kg/day

## COc1ccc(C(=O)c2c(C)n(CCN3CCOCC3)c3ccccc23)cc1 [Pravadoline]
Rat [10]; [22]
  LEL: 300 mg/kg/day
  LOAEL: > 300 mg/kg/day
  NEL: 100 mg/kg/day
  NOAEL: ≥ 300 mg/kg/day
Rat [10]; group: reproductive, reproductive / reproductive performance / gestational length / gestational length
  NEL: 100 mg/kg/day
Rat [10]; [23]
  LEL: 300 mg/kg/day
  LOAEL: > 300 mg/kg/day
  NOAEL: ≥ 300 mg/kg/day
